{"source": "paper PMC3665737", "about": "(Biochimica et biophysica acta, 2013)", "origin": "cited, not measured here", "molecules": {"B1": {"name": "calpain I: Ca^2+-activated protease (protein, UniProt P07384 2-714; P04632 1-268, looked up)", "Calpain-1 catalytic subunit": "SEEIITPVYCTGVSAQVQKQRARELGLGRHENAIKYLGQDYEQLRVRCLQSGTLFRDEAFPPVPQSLGYKDLGPNSSKTYGIKWKRPTELLSNPQFIVDGATRTDICQGALGDCWLLAAIASLTLNDTLLHRVVPHGQSFQNGYAGIFHFQLWQFGEWVDVVVDDLLPIKDGKLVFVHSAEGNEFWSALLEKAYAKVNGSYEALSGGSTSEGFEDFTGGVTEWYELRKAPSDLYQIILKALERGSLLGCSIDISSVLDMEAITFKKLVKGHAYSVTGAKQVNYRGQVVSLIRMRNPWGEVEWTGAWSDSSSEWNNVDPYERDQLRVKMEDGEFWMSFRDFMREFTRLEICNLTPDALKSRTIRKWNTTLYEGTWRRGSTAGGCRNYPATFWVNPQFKIRLDETDDPDDYGDRESGCSFVLALMQKHRRRERRFGRDMETIGFAVYEVPPELVGQPAVHLKRDFFLANASRARSEQFINLREVSTRFRLPPGEYVVVPSTFEPNKEGDFVLRFFSEKSAGTVELDDQIQANLPDEQVLSEEEIDENFKALFRQLAGEDMEISVKELRTILNRIISKHKDLRTKGFSLESCRSMVNLMDRDGNGKLGLVEFNILWNRIRNYLSIFRKFDLDKSGSMSAYEMRMAIESAGFKLNKKLYELIITRYSEPDLAVDFDNFVCCLVRLETMFRFFKTLDTDLDGVVTFDLFKWLQLTMFA", "Calpain small subunit 1": "MFLVNSFLKGGGGGGGGGGGLGGGLGNVLGGLISGAGGGGGGGGGGGGGGGGGGGGTAMRILGGVISAISEAAAQYNPEPPPPRTHYSNIEANESEEVRQFRRLFAQLAGDDMEVSATELMNILNKVVTRHPDLKTDGFGIDTCRSMVAVMDSDTTGKLGFEEFKYLWNNIKRWQAIYKQFDTDRSGTICSSELPGAFEAAGFHLNEHLYNMIIRRYSDESGNMDFDNFISCLVRLDAMFRAFKSLDKDGTGQIQVNIQEWLQLTMYS"}}, "key": {"[1]": {"system": "PKA (C subunit)", "settings": "ALLN 500 μM, 30 min, 37 °C, ref [15]; for calpain dependence of induced PKA activity (effect of ALLN): oligomycin 5 μM, rotenone 10 μM, CCCP 5 μM, sodium azide 2 mM"}, "[2]": {"system": "mitochondrial calpain", "settings": "bovine heart mitochondria; substrate N-succinyl-Leu-Tyr-7-amido-4-methylcoumarin; ref [15]"}, "[3]": {"system": "regulatory subunits (RI and RII) of PKA", "settings": "bovine heart mitochondria exposed to digitonin; ref [15]"}, "[4]": {"system": "PKA", "settings": "peptides 1 - 3, with 14-3-3 domain; ref [14]"}, "[5]": {"system": "R2C2 holoenzyme", "settings": "100 μM CaCl2, 0.5, 1.5, and 2.0 h, western blot, ref [15]"}, "[6]": {"system": "R subunit", "settings": "isolated R subunit; 10 μM CaCl2, 37 °C, 20 min; ref [15]"}, "[7]": {"system": "C subunit", "settings": "isolated C subunit; Ca^2+ ≥ 100 μM, 37 °C, 20 min; ref [15]"}}, "note": "Where a SMILES comes first, the peptide text is derived from it. [ ]: non-standard residue; d: D form. Nle = CCCC[C@H](N)C(=O)O"}
{"molecule": "CC[C@H]1/C=C/C=C/C[C@@H](C)[C@H](O)[C@@](C)(O)C(=O)[C@@H](C)[C@H](O)[C@@H](C)C(=O)[C@@H](C)[C@H](O)[C@@H](C)/C=C/C(=O)O[C@@H]2[C@H](C)[C@H](CC1)O[C@]1(CC[C@H](C)[C@H](C[C@@H](C)O)O1)[C@H]2C", "note": "[oligomycin]", "values": [{"measurement": "calpain dependence of induced PKA activity (effect of ALLN)", "setting": "[1]", "value": "calpain independent"}]}
{"molecule": "CCCC[C@@H](C=O)NC(=O)[C@H](CC(C)C)NC(=O)[C@H](CC(C)C)NC(C)=O", "note": "[ALLN, N-acetyl-Leu-Leu-Nle-al] (Ac-Leu-Leu-[Nle]-aldehyde)", "values": [{"measurement": "attenuation of PKA activity induced by rotenone, azide and CCCP", "setting": "[1]; western blot", "value": "attenuated"}]}
{"molecule": "C[C@@H]1CC[C@@]2(OC1)O[C@H]1[C@@H](O)[C@H]3[C@@H]4CC[C@H]5C[C@@H](O[C@@H]6O[C@H](CO)[C@H](O[C@@H]7O[C@H](CO)[C@@H](O)[C@H](O[C@@H]8OC[C@@H](O)[C@H](O)[C@H]8O)[C@H]7O[C@@H]7O[C@H](CO)[C@H](O)[C@H](O[C@@H]8O[C@H](CO)[C@@H](O)[C@H](O)[C@H]8O)[C@H]7O)[C@H](O)[C@H]6O)[C@H](O)C[C@]5(C)[C@H]4CC[C@]3(C)[C@H]1[C@@H]2C", "note": "[digitonin]", "values": [{"measurement": "activation of mitochondrial calpain", "setting": "[2]", "value": "direct activation of mitochondrial calpain"}, {"measurement": "C subunit proteolysis", "setting": "[3]", "value": "the catalytic subunit (C) remained intact"}]}
{"molecule": "CCCCc1ccc(Nc2ccc(Nc3ccc(CCCC)cc3S(=O)(=O)[O-])c3c2C(=O)c2ccccc2C3=O)c(S(=O)(=O)[O-])c1.[Na+].[Na+]", "note": "[Acid green 27]", "values": [{"measurement": "PKA-induced fluorescence increase with quencher", "setting": "[4]", "value": "dramatic PKA-induced fluorescence increase"}]}
{"molecule": "N#CC(C#N)=NNc1cccc(Cl)c1", "note": "[CCCP, chlorophenylhydrazone]", "values": [{"measurement": "calpain dependence of induced PKA activity (effect of ALLN)", "setting": "[1]", "value": "attenuated by ALLN"}]}
{"molecule": "C=C(C)[C@H]1Cc2c(ccc3c2O[C@@H]2COc4cc(OC)c(OC)cc4[C@@H]2C3=O)O1", "note": "[rotenone]", "values": [{"measurement": "calpain dependence of induced PKA activity (effect of ALLN)", "setting": "[1]", "value": "attenuated by ALLN"}]}
{"molecule": "[N-]=[N+]=[N-].[Na+]", "note": "[azide, sodium azide]", "values": [{"measurement": "calpain dependence of induced PKA activity (effect of ALLN)", "setting": "[1]", "value": "attenuated by ALLN"}]}
{"molecule": "B1", "values": [{"measurement": "subunit proteolysis in holoenzyme", "setting": "[5]", "value": "proteolysis of the R subunit, but not the C subunit"}, {"measurement": "R subunit digestion", "setting": "[6]", "value": "selectively digested"}, {"measurement": "C subunit digestion", "setting": "[7]", "value": "partial proteolysis"}]}
